Measurements: patent EP4722216A1, “PYRROLOPYRIMIDINE DERIVATIVE AND USE THEREOF IN MEDICINE” (Kangbaida (Sichuan) Biotechnology Co., Ltd., priority 2023, dated 2024)

Tests used:
FGFR1 = biological target: T1, FGFR1 (Homo sapiens, UniProt P11362); assay: FGFR1-4 enzymology, HTRF method (FGFR1); assay type: biochemical; conditions: FGFR1 enzyme 0.10 nM, substrate (TK) 1 µM, ATP 40 µM
T1 construct: purchased Carna 08-133
Procedure: (§1) The inhibitory effects of compounds on the enzymatic activities of FGFR1, 2, 3, and 4 were detected by using HTRF method (PerkinElmer, 62TK0PEJ). 2× Enzyme and 2× substrate /ATP mixed solutions were prepared using a buffer solution. The final concentrations of FGFR1 enzyme (Cama, 08-133), the substrate (TK), and ATP were 0.10 nM, 1 µM, and 40 µM, respectively; the final concentrations of FGFR2 (Carna, 08-134), the substrate (TK), and ATP were 0.08 nM, 1 µM, and 20 µM, respectively; the final concentrations of FGFR3 (Cama, 08-135), the substrate (TK), and ATP were 0.30 nM, 1 µM, and 50 µM, respectively; and the final concentrations of FGFR4 (Carna, 08-136), the substrate (TK), and ATP were 10 nM, 1 µM, and 50 µM, respectively. The compound stock solution was diluted to 100× working concentration using DMSO. 50 nL/well of the compound was transferred to a 384-well plate using Echo, with 2 replicate wells per concentration. 2.5 µL/well of 2× kinase solution was added to reaction wells, mixed and incubated at 25°C for 10 min. 2.5 µL/well of 2× substrate/ATP solution was added to reaction wells and incubated at 25°C for 50 min. 2× Streptavidin-XL665/Cryptate-antibody mixed solution was prepared using a detection buffer solution (containing EDTA). 5 µL/well of a kinase detection reagent was added to the reaction wells and incubated at 25°C for 60 min. Fluorescence signals at 620 nm (Cryptate) and 665 nm (XL665) were read by a multifunctional microplate reader. IC50 (median inhibitory concentration) of the compound was calculated using the GraphPad nonlinear fitting formula, Y=Bottom + (Top-Bottom)/(1+10^((LogIC50-X) ×HillSlope)), in which X: the logarithmic value of the concentration of the compound; and Y: the inhibition rate of the compound (% inhibition).

FGFR2 = biological target: T2, FGFR2 (Homo sapiens, UniProt P21802); assay: FGFR1-4 enzymology, HTRF method (FGFR2); assay type: biochemical; conditions: FGFR2 0.08 nM, substrate (TK) 1 µM, ATP 20 µM
T2 construct: purchased Carna 08-134
T2 sequence (P21802 22-821): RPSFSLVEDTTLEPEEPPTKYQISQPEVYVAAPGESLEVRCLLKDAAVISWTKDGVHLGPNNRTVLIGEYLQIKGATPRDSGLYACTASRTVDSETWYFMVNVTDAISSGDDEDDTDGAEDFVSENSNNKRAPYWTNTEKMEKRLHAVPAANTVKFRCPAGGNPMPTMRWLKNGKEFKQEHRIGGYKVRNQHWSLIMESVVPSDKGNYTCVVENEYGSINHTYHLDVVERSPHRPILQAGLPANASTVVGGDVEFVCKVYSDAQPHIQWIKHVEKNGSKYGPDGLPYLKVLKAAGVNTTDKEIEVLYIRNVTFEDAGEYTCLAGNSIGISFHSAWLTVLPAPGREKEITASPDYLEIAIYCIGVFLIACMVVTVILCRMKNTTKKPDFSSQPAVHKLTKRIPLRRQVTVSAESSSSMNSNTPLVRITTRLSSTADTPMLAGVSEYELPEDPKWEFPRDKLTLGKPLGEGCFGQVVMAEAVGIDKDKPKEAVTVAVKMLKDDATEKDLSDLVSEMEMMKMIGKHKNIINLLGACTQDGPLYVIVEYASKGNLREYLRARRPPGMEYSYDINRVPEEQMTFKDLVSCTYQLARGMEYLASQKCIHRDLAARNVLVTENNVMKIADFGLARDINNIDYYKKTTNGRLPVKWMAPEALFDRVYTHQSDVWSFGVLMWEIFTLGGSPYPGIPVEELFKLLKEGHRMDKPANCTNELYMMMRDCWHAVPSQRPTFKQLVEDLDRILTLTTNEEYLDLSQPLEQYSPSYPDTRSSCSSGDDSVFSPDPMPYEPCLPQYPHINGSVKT
Procedure: as §1

FGFR3 = biological target: T3, FGFR3 (Homo sapiens, UniProt P22607); assay: FGFR1-4 enzymology, HTRF method (FGFR3); assay type: biochemical; conditions: FGFR3 0.30 nM, substrate (TK) 1 µM, ATP 50 µM
T3 construct: purchased Carna 08-135
T3 sequence (P22607 23-806): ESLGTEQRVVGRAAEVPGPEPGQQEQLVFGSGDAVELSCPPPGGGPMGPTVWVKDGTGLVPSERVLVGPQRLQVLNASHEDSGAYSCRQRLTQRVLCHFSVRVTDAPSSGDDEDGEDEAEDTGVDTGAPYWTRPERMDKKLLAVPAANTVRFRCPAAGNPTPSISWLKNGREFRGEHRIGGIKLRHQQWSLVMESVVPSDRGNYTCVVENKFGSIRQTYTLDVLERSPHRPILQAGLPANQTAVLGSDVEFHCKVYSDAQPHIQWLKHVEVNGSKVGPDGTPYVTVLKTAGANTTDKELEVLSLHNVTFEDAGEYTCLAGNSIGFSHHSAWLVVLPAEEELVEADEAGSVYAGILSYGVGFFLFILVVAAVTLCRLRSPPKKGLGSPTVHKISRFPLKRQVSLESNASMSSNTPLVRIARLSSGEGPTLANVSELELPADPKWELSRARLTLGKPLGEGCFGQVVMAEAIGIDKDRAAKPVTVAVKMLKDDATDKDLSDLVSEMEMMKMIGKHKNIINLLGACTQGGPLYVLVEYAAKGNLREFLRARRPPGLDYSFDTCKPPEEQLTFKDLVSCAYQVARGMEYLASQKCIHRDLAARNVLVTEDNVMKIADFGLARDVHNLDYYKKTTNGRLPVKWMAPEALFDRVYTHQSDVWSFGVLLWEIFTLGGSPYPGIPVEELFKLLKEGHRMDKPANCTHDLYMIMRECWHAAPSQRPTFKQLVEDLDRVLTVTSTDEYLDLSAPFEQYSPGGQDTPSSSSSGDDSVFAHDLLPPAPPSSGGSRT
Procedure: as §1

FGFR4 = biological target: T4, FGFR4 (Homo sapiens, UniProt P22455); assay: FGFR1-4 enzymology, HTRF method (FGFR4); assay type: biochemical; conditions: FGFR4 10 nM, substrate (TK) 1 µM, ATP 50 µM
T4 construct: purchased Carna 08-136
T4 sequence (P22455 22-802): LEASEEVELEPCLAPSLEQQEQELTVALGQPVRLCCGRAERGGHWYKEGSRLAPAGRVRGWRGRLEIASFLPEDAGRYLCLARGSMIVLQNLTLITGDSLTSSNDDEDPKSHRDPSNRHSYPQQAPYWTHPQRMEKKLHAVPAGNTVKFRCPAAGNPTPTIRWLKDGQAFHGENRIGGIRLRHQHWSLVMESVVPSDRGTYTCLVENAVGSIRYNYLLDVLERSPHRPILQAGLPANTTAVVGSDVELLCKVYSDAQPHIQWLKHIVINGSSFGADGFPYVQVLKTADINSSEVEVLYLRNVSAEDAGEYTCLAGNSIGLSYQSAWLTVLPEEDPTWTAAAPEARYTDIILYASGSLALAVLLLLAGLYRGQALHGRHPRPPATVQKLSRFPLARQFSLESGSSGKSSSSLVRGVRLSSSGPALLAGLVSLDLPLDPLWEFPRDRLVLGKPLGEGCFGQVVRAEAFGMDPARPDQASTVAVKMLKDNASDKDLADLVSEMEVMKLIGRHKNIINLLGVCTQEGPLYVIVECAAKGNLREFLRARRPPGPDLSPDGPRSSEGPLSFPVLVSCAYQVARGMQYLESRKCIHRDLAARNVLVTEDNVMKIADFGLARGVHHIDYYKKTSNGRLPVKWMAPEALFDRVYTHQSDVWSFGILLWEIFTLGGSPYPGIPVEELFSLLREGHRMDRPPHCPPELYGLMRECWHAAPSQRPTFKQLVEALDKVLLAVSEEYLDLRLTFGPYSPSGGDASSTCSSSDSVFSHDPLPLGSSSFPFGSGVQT
Procedure: as §1

[1] = Pharmacokinetic study on mouse brain tissue (plasma/cerebrospinal fluid/brain tissue); assay type: in vivo; conditions: ICR mice, intragastric administration 10 mg/kg; for Tmax / half-life: male, mouse, po
Procedure: An appropriate amount of the test substance was weighed and formulated into a 1 mg/mL transparent and clear solution using 10% DMSO + 5% HS-15 + 85% Saline for intragastric administration. 24 healthy male ICR mice (Charles River, SPF grade) were taken, with 3 animals per time point. Blood samples were collected at 15 min, 0.5, 1, 2, 4, 6, 8, and 24 h after intragastric administration of the test substance (10 mg/kg). The blood sample was anticoagulated with EDTA-K2 and then centrifuged at 6000 g at 4°C for 5 min to separate plasma. The plasma was stored at - 70°C for testing. After blood collection, the animal was sacrificed to collect cerebrospinal fluid, which was stored at -70°C for testing. The brain tissue was rinsed with ice-cold normal saline to remove the residual blood, blotted dry with absorbent paper, and then stored at -70°C for testing. The drug concentration of the specified compound in the plasma/cerebrospinal fluid/brain tissue was determined using LC-MS/MS method (with Gliclazide as an internal standard). The main pharmacokinetic parameters were calculated using a Winnolin 8.3 noncompartmental model.

[2] = Pharmacokinetic study in rats in vivo; conditions: SD rats; for F: intragastric 5 mg/kg versus intravenous 1 mg/kg; for AUC0-t / Cmax / half-life: male, rat, po, Plasma, intragastric administration 5 mg/kg
Procedure: An appropriate amount of the test substance was weighed and formulated into a 0.5 mg/mL transparent and clear solution using 10% DMSO + 5% HS-15 + 85% Saline for intravenous administration. The test substance was formulated into a 1 mg/mL uniform suspension using 10% DMSO + 5% HS-15 + 85% Saline for intragastric administration. 6 healthy male SD rats (Charles River, SPF grade) were taken, with 3 animals assigned to the intravenous group and three to the intragastric group, respectively. With 3 animals per time point, blood samples were collected via the jugular vein. Blood samples were collected at 5 min, 15 min, 0.5, 1, 2, 4, 8, and 24 h after intravenous administration of the test substance (1 mg/kg), and blood samples were collected at 15 min, 0.5, 1, 2, 4, 6, 8, and 24 h after intragastric administration of the test substance (5 mg/kg). After anticoagulation with EDTA-K2, the blood samples were centrifuged at 6000 g at 4°C for 5 min to separate plasma, and all plasma samples were stored at -70°C for testing. The drug concentration of the test substance in plasma was determined by LC-MS/MS method (with gliclazide as an internal standard), and the main pharmacokinetic parameters were calculated by Winnolin 8.3 non-compartment model. The intragastric administration results are as follows: […]

FGFR2 V564I = FGFR2 V564I (Homo sapiens, UniProt P21802, V564I); assay: FGFR2 and FGFR3 mutant enzymology, HTRF method (FGFR2 V564I); assay type: biochemical; conditions: kinase 0.03 nM, substrate 1 µM, ATP 20 µM
Chain of FGFR2 V564I (P21802 22-821 V564I): as the sequence (P21802 22-821) above, with V543I counted along it
Procedure: (§2) The inhibitory effects of the compounds on the enzymatic activities of FGFR2 and FGFR3 mutants by using HTRF method (PerkinElmer, 62TK0PEJ). 2× Enzyme and 2× substrate /ATP mixed solutions were prepared using a buffer solution.
(§3) The compound stock solution was diluted to 100× working concentration using DMSO. 50 nL/well of the compound was transferred to a 384-well plate using Echo, with 2 replicate wells per concentration. 2.5 µL/well of 2× kinase solution was added to reaction wells, mixed and incubated at 25°C for 10 min. 2.5 µL/well of 2× substrate/ATP solution was added to reaction wells and incubated at 25°C for 50 min. 2× Streptavidin-XL665/Cryptate-antibody mixed solution was prepared using a detection buffer solution (containing EDTA). 5 µL/well of a kinase detection reagent was added to the reaction wells and incubated at 25°C for 60 min. Fluorescence signals at 620 nm (Cryptate) and 665 nm (XL665) were read by a multifunctional microplate reader. According to the test results, the inhibition rate was calculated. […] IC50 (median inhibitory concentration) of the compound was calculated using the GraphPad nonlinear fitting formula, Y = Bottom + (Top-Bottom)/(1+10^((LogIC50-X) ×HillSlope)), in which X: the logarithmic value of the concentration of the compound; and Y: the inhibition rate of the compound (% inhibition).

FGFR2 V564F = FGFR2 V564F (Homo sapiens, UniProt P21802, V564F); assay: FGFR2 and FGFR3 mutant enzymology, HTRF method (FGFR2 V564F); assay type: biochemical; conditions: kinase 0.02 nM, substrate 1 µM, ATP 15 µM
Chain of FGFR2 V564F (P21802 22-821 V564F): as the sequence (P21802 22-821) above, with V543F counted along it
Procedure: as §2, §3

FGFR2 N549H = FGFR2 N549H (Homo sapiens, UniProt P21802, N549H); assay: FGFR2 and FGFR3 mutant enzymology, HTRF method (FGFR2 N549H); assay type: biochemical; conditions: kinase 0.02 nM, substrate 1 µM, ATP 9 µM
Chain of FGFR2 N549H (P21802 22-821 N549H): as the sequence (P21802 22-821) above, with N528H counted along it
Procedure: as §2, §3

FGFR3 K650M = FGFR3 K650M (Homo sapiens, UniProt P22607, K650M); assay: FGFR2 and FGFR3 mutant enzymology, HTRF method (FGFR3 K650M); assay type: biochemical; conditions: kinase 0.10 nM, substrate 1 µM, ATP 12 µM
Chain of FGFR3 K650M (P22607 23-806 K650M): as the sequence (P22607 23-806) above, with K628M counted along it
Procedure: as §2, §3

FGFR3 V555M = FGFR3 V555M (Homo sapiens, UniProt P22607, V555M); assay: FGFR2 and FGFR3 mutant enzymology, HTRF method (FGFR3 V555M); assay type: biochemical; conditions: kinase 0.55 nM, substrate 1 µM, ATP 20 µM
Chain of FGFR3 V555M (P22607 23-806 V555M): as the sequence (P22607 23-806) above, with V533M counted along it
Procedure: as §2, §3

T1 sequence (P11362 22-822): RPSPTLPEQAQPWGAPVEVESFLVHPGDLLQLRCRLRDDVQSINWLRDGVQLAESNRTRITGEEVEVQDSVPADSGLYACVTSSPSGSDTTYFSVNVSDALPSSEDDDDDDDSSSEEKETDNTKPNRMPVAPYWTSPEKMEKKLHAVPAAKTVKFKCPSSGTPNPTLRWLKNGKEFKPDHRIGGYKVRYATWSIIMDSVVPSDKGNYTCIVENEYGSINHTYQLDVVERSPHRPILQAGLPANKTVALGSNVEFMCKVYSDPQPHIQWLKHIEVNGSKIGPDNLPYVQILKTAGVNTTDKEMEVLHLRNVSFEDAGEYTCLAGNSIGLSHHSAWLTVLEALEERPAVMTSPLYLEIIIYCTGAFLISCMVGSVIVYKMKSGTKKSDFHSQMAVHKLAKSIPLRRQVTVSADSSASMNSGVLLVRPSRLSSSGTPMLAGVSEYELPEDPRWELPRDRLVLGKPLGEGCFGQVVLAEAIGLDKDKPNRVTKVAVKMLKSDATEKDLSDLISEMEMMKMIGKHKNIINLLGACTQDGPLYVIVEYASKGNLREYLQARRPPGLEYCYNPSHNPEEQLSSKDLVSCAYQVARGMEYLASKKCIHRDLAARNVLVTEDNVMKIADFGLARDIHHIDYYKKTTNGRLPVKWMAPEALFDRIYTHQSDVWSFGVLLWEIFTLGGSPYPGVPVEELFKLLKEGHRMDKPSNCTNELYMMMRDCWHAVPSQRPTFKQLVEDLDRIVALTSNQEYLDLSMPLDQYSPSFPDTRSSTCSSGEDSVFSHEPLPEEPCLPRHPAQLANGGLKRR

Row | IC50 (FGFR1) [nM] | IC50 (FGFR2) [nM] | IC50 (FGFR3) [nM] | IC50 (FGFR4) [nM] | AUC0-t ([1]; Brain tissue) | AUC0-t ([1]; Cerebrospinal fluid) | AUC0-t ([1]; Plasma) | Tmax ([1]; Brain tissue) [h] | half-life ([1]; Brain tissue) [h] | Tmax ([1]; Cerebrospinal fluid) [h] | Tmax ([1]; Plasma) [h] | half-life ([1]; Plasma) [h] | F [2] [%] | AUC0-t [2] [ng·h/mL] | Cmax [2] [ng/mL] | half-life [2] [h] | Structure (SMILES) | further results
1 | > 1000 | 23.8 | > 1000 | > 1000 | 524 h*ng/mL or h*ng/g | 59 h*ng/mL or h*ng/g | 50857 h*ng/mL or h*ng/g | 1 | 3 | 0.5 | 1 | 3.1 | 90.8 | 3190 | 938 | 1.9 | C=C(C(=O)Nc1ccc(-c2c(-c3ccc(Oc4nccc(C)n4)c(F)c3)c3c(N)ncnc3n2C)cc1)C1CC1 [Compound 1, N-(4-(4-amino-5-(3-fluoro-4-((4-methylpyrimidin-2-yl)oxy)phenyl)-7-methyl-7H-pyrrolo[2,3-d]pyrimidin-6-yl)phenyl]-2-cyclopropylacrylamide] | half-life ([1]; Cerebrospinal fluid): 6.3 h
2 | 407 | 12 | 149 | > 1000 | – | – | – | – | – | – | – | – | – | – | – | – | C=C(C(=O)Nc1ccc(-c2c(-c3ccc(Oc4nccc(C)n4)c(F)c3)c3c(N)ncnc3n2C)cn1)C1CC1 [Compound 2, N-(5-(4-amino-5-(3-fluoro-4-((4-methylpyrimidin-2-yl)oxy)phenyl)-7-methyl-7H-pyrrolo[2,3-d]pyrimidin-6-yl)pyridin-2-yl]-2-cyclopropylacrylamide] | –
3 | 165 | 1.7 | 64.2 | > 1000 | 277 h*ng/mL or h*ng/g | 9 h*ng/mL or h*ng/g | 21966 h*ng/mL or h*ng/g | 1 | 1.7 | 1 | 0.5 | 1.8 | 24.2 | 787 | 273 | 0.9 | C=C(C(=O)Nc1ccc(-c2c(-c3ccc(Oc4nccc(C)n4)c(F)c3)c3c(N)ncnc3n2C)c(Cl)c1)C1CC1 [Compound 4, N-(4-(4-amino-5-(3-fluoro-4-((4-methylpyrimidin-2-yl)oxy)phenyl)-7-methyl-7H-pyrrolo[2,3-d]pyrimidin-6-yl)-3-chlorophenyl)-2-cyclopropylacrylamide] | IC50 (FGFR2 V564I): 15 nM; IC50 (FGFR2 V564F): 0.5 nM; IC50 (FGFR2 N549H): 5.2 nM; IC50 (FGFR3 K650M): 271 nM; IC50 (FGFR3 V555M): 120 nM
4 | 550 | 7.3 | 246 | > 1000 | – | – | – | – | – | – | – | – | – | – | – | – | C=C(C(=O)Nc1ccc(-c2c(-c3ccc(Oc4nccc(C)n4)c(F)c3)c3c(N)ncnc3n2C)c(F)c1)C1CC1 [Compound 5, N-(4-(4-amino-5-(3-fluoro-4-((4-methylpyrimidin-2-yl)oxy)phenyl)-7-methyl-7H-pyrrolo[2,3-d]pyrimidin-6-yl)-3-fluorophenyl)-2-cyclopropylacrylamide] | –
5 | > 1000 | 65.5 | > 1000 | > 1000 | – | – | – | – | – | – | – | – | – | – | – | – | C=C(C(=O)Nc1ccc(-c2c(-c3ccc(Oc4cccc(Cl)n4)c(F)c3)c3c(N)ncnc3n2C)cc1)C1CC1 [Compound 9, N-(4-(4-amino-5-(4-((6-chloropyridin-2-yl)oxy)-3-fluorophenyl)-7-methyl-7H-pyrrolo[2,3-d]pyrimidin-6-yl)phenyl)-2-cyclopropylacrylamide] | –
